Measurements from article PMC9764201, “Half-calcified calmodulin promotes basal activity and inactivation of the L-type calcium channel CaV1.2” (The Journal of Biological Chemistry, 2022).

System: CaV1.2
Assay: Whole-cell patch clamp of CaV1.2 variants in HEK 293T/17 cells
Type: cell-based, rat
Conditions: interleaved WT, mean±SEM; for Imax Ba2+ (peak current density) / Imax Ba2+ (r300): 10 mM Ba^2+; for Imax Ba2+ (peak current density): 0 mV; for Imax Ca2+ (peak current density) / Imax Ca2+ (r300): 10 mM Ca^2+; for Imax Ca2+ (peak current density): +20 mV; for VDI300: 1-(Ba300/Bamax); for netCDI300: 1-(Ca300/Camax)/(Ba300/Bamax); for Imax Ba2+ (r300) / Imax Ca2+ (r300): fraction of maximal current remaining after 300 ms
Experimental: HEK 293T/17 cells (ATCC) were maintained as previously described ([15], [53]). For electrophysiology, Lipofectamine 2000 (Invitrogene) or JetPrime (Polyplus Transfection) was used to transiently transfect cells with indicated plasmid DNAs in 35 mm dishes. For biochemistry experiments, transient transfection of HEK 293T/17 cells in […] dishes was achieved using either JetPrime or, as previously described ([15], [53]), the calcium phosphate method. Cells were cotransfected with plasmids encoding the pore-forming α11.2 subunit N-terminally tagged with eCFP ([15], [53]) or mCherry ([54]) plus pGWIH-based plasmids encoding the auxiliary subunits rat β2A ([55]) and rabbit α2δ-1 ([56]) as previously described ([15], [53]). For all transfections, equimolar ratio of 1:1:1 was used for CaV1.2 channel subunits and later further optimized (JetPrime) for CaM (at ratio of 1:1:1:0.5 for α11.2:β2A:α2δ−1:CaM). Rat brain α11.2 (GenBank ID: M67515.1) N-terminally fused to eCFP was utilized as previously described ([15]). The point mutations in plasmids encoding single-residue I1654A, Y1657D (this report), and K1662E exchanges in α11.2 were generated via QuikChange II as previously described ([15], [53]) using N-terminally eCFP ([15], [53]) or mCherry tagged ([54]) rat brain α11.2 plasmid template DNAs. We studied CDI using mCherry-tagged α11.2 subunit coexpressed with the other, untagged CaV1.2 subunits and WT CaM or the calmodulin 34 mutant CaM34 (kindly provided by JP Adelman, ([8])). For some biochemical experiments shown in Fig. S2, YFP-tagged CaM was used ([32]).
Macroscopic Ba^2+- (IBa) and Ca^2+ currents (ICa) of CaV1.2 L-type Ca^2+ channels were obtained in the whole-cell configuration using external bath solution containing (in mM) 134 N-methyl-D-glucamine, 10 BaCl2 (for CDI, 10 CaCl2), 1 MgCl2, 10 Hepes, and 10 glucose with an adjusted pH of 7.4 (Cs-OH) and an osmolarity of 300 to 310 mOsm (sucrose). Intracellular pipette solution contained (in mM) 125 Cs-MeSO3, 5 CsCl, 10 EGTA, 10 Hepes, 1 MgCl2, 4 Mg-ATP, and pH 7.3 (CsOH), mOsm 290 to 300 (sucrose). Cells were clamped at a holding potential of -80 mV and depolarized for 900 ms to a series of activating potentials, from −60 mV to +50 mV (or +80 mV for Ca^2+ currents), in increments of 10 mV at an interval of 0.033 Hz. The series resistance and the cell capacitance were directly taken from the Amplifier (Axopatch 200B, Molecular Device) and compensated to ∼40%. Data were sampled at 10 kHz and lowpass filtered at 2 kHz. Leak subtracted raw data were analyzed with Pclamp10 and GraphPad Prism IX software. All recordings were performed at room temperature (RT).
Table S1. HEK 293T/17 cells were transiently transfected with eCFP-tagged rat CaV1.2 (WT versus I1654A and K1662E or versus Y1657D) plus α2δ1 and β2a and whole cell current recorded (see Fig. 3 for more details).
Panel A. Peak current density from I/V curves of whole-cell recordings. Imax values were determined at +20 mV for Ca2+ and 0 mV for Ba2+.
Panel B. r300 values and quantification of CDI and VDI. Whole-cell currents remaining after 300 ms of depolarization (r300) are given as fraction of maximal currents based on values in A. Net CDI was calculated as the ratiometric value net 1-(Ca300/Camax)/(Ba300/Bamax) and VDI as 1- […]
For each panel: Top: Analysis of interleaved recordings of CaV1.2 WT versus I1654A and K1662E IQ- mutants (one-way ANOVA with a Bonferroni post-hoc test; *p<0.05, **p<0.01 and ***p<0.001 and ****p<0.0001). Bottom: Analysis of interleaved recordings of CaV1.2 WT versus Y1657D IQ-mutant CaV1.2 (unpaired T-Test, *p<0.05 and ****p<0.0001). […]
mean±SEM and numbers in parentheses (n) are independent experiments.
IQ-variant ImaxCa2+(pA/pF) ImaxBa2+(pA/pF) p-value

CaV1.2: WT rat brain α11.2 with α2δ1 and β2A expressed in HEK 293T/17 cells
Imax Ba2+ (peak current density) (I1654A, K1662E): 46.7±9.1 pA/pF
Imax Ba2+ (peak current density) (Y1657D): 21.8±4 pA/pF
Imax Ca2+ (peak current density) (I1654A, K1662E): 18.3±4.2 pA/pF
Imax Ca2+ (peak current density) (Y1657D): 16.4±2.1 pA/pF
VDI300 (I1654A, K1662E): 0.19±0.02
VDI300 (Y1657D): 0.17±0.02
netCDI300 (I1654A, K1662E): 0.59±0.04
netCDI300 (Y1657D): 0.61±0.03
Imax Ba2+ (r300) (I1654A, K1662E): 0.81±0.02
Imax Ba2+ (r300) (Y1657D): 0.83±0.02
Imax Ca2+ (r300) (I1654A, K1662E): 0.33±0.03
Imax Ca2+ (r300) (Y1657D): 0.32±0.03
